Article PMC9465256, “Discovering monoacylglycerol lipase inhibitors by a combination of fluorogenic substrate assay and activity-based protein profiling” (Frontiers in Pharmacology, 2022)

Assays:
Assay type in all cases: biochemical
endogenous mouse MAGL = target: T1, endogenous mouse MAGL (Mus musculus, UniProt O35678); experiment: Competitive ABPP, mouse brain membrane proteome: MAGL band; settings: FP-TAMRA 250 nM
T1 construct: on endogenous MAGL, we applied an ABPP assay with mouse brain membrane proteome; from tissue; host or cells: mouse brain membrane fraction
T1 sequence (O35678 1-303): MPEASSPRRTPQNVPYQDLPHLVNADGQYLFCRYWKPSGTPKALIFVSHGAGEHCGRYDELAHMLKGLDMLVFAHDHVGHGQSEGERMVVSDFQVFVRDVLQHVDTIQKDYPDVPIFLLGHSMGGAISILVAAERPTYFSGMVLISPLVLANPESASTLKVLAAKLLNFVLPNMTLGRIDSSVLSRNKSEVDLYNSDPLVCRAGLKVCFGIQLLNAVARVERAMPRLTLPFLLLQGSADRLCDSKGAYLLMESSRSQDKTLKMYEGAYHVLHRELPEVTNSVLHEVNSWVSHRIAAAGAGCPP
Procedure: (§1) Mouse brains were isolated according to guidelines approved by the ethical committee of Western China Hospital, Sichuan University (No. 2021765A). Mouse brains were dounce homogenized lysis buffer (20 mM HEPES, 2 mM DTT, 1 mM MgCl2, 25 U/mL benzonase) and incubated on ice for 15 min, followed by low-speed spin (2,500 g, 3 min, 4 C) to remove debris. The supernatant was subjected to ultracentrifugation (100,000 g, 45 min, 4°C) to generate the cytosolic fraction in the supernatant, as well as the membrane fraction as a pellet. After removal of the soluble supernatant, the pellet was resuspended in storage buffer (20 mM HEPES, 2 mM DTT) by pipetting. Total protein concentrations in membrane and soluble fractions were determined using a Qubit protein assay (Invitrogen). The obtained samples were stored at −80°C until further use.
The competitive ABPP selectivity assay was performed according to the previously reported protocol. Briefly, mouse brain membrane proteome (2 mg/ml, 20 µl) was preincubated for 30 min with 0.5 µl of DMSO (vehicle) or inhibitor (100 μM, finial concentration). Subsequently, the proteome-inhibitor complex was treated with the activity-based probe FP-TAMRA (250 nM, final concentration) for 20 min. […] The gels were then scanned and analyzed using a ChemiDoc MP system (Cy3 settings, BioRad). All the samples were measured and duplicated.

[1] = tested on: serine hydrolases labeled by FP-TAMRA in mouse brain membrane proteome; experiment: Competitive ABPP selectivity assay, mouse brain membrane proteome; settings: 100 µM, FP-TAMRA 250 nM
Procedure: as §1, with “Mouse” for “Mouse brains were isolated according to guidelines approved by the ethical committee of Western China Hospital, Sichuan University (No. 2021765A). Mouse”
The competitive ABPP selectivity assay was performed according to the previously reported protocol. Briefly, mouse brain membrane proteome (2 mg/ml, 20 µl) was preincubated for 30 min with 0.5 µl of DMSO (vehicle) or inhibitor (100 μM, finial concentration). […] The reactions were then quenched by 10 µl sample buffer (×4). The obtained samples were directly loaded and resolved on SDS-PAGE gel (10% acrylamide). The gels were then scanned and analyzed using a ChemiDoc MP system (Cy3 settings, BioRad). All the samples were measured and duplicated.

[2] = tested on: endogenous MAGL in cancer cells; experiment: Competitive ABPP in cancer cell lysates: MAGL band; settings: 100 µM, FP-TAMRA 500 nM
Procedure: To identify the potential off-targets of the compounds with anti-cancer activities, ABPP was applied. Cancer cells were seeded in the dishes and were washed with PBS, scraped, centrifugated (3,000 × g, 3 min) and pellets snap frozen in liquid in nitrogen. For ABPP experiments, the cell pellets were lysed by probe sonication (3 × 10 bursts) in PBS, followed by the determination of protein concentration of the intact cell lysate by Qubit assay. […] The reactions were then quenched by 10 µl sample buffer (×4). The obtained samples were directly loaded and resolved on SDS-PAGE gel (10% acrylamide). The gel-based ABPP results were then scanned and analyzed using a ChemiDoc MP system (Cy3 settings, BioRad).

For C[C@H]1COC2=C1C(=O)C(=O)c1c2ccc2c1CCCC2(C)C [compound 23, Cryptotanshinone], the inhibition at 100 µM (endogenous mouse MAGL) was 50 to 60%, the “selectivity profile over serine hydrolases” value [1] was “broad-spectrum inhibitors that cross-reacted with multiple serine hydrolases” and the “labeling of endogenous MAGL, A549” value ([2]; 30 min, A549 cell lysate) was “completely reduced the labeling”. The “labeling of endogenous MAGL, B16-F10” value ([2]; 30 min, B16-F10 cell lysate) was “completely reduced the labeling”, the “labeling of endogenous MAGL, H1975” value ([2]; 30 min, H1975 cell lysate) was “completely reduced the labeling” and the “labeling of endogenous MAGL, HCC827” value ([2]; 30 min, HCC827 cell lysate) was “completely reduced the labeling”. For the same compound, the “labeling of endogenous MAGL, HT-29” value ([2]; 30 min, HT-29 cell lysate) was “completely reduced the labeling”, the “labeling of endogenous MAGL, Hela” value ([2]; 30 min, Hela cell lysate) was “completely reduced the labeling” and the “labeling of endogenous MAGL, OVCAR-3” value ([2]; 30 min, OVCAR-3 cell lysate) was “completely reduced the labeling”. The “inhibition of endogenous MAGL in the tested cancer cell lines” value ([2]; cancer cell lysates) was “nearly complete inhibition”.
